Test results as given in patent US20210278408A1, “METHODS OF TREATMENT OF CANCER WITH SUBSTITUTED PYRROLE AND PYRAZOLE COMPOUNDS AND DIAGNOSIS OF CANCERS SUSCEPTIBLE TO TREATMENT WITH SUBSTITUTED PYRROLE AND PYRAZOLE COMPOUNDS” (Bantam Pharmaceutical, LLC, priority 2018, published 2021).
Where two headings read alike, the source gives them in different places.

Test system: 407 cancer cell lines
Experiment: Cell viability of cancer cell lines (IC50), CellTiter-Glo Viability Assay, 96 h
Format: cell-based
Settings: for IC50: read-out: Absolute IC50
Procedure: Viability was determined by using the 50% inhibitory concentration (IC50) as determined with the CellTiter-Glo® Viability Assay (Promega).
Experiments were initiated by first thawing and equilibrating the CellTiter-Glo® Buffer to room temperature. The lyophilized CellTiter-Glo® Substrate was also equilibrated to room temperature. The lyophilized substrate was reconstituted with the CellTiter-Glo® buffer to form the CellTiter-Glo® Reagent.
Cells were harvested during the logarithmic growth period, counted, and the cell concentration adjusted to 4.44×10^4 cells/mL using culture medium.
Cells were allowed to grow overnight and the following day, the TO reading was obtained by adding 10 μL culture medium to each well of Plate A. The plate was allowed to equilibrate at room temperature for thirty minutes, after which 50 μL CellTiter-Glo® reagent was added to each well. The contents were mixed for 5 min on an orbital shaker to induce cell lysis. Plates were incubated for 20 minutes to stabilize the luminescent signal and the TO luminescence recorded.
Test plate B was incubated for 96 h in the humidified incubator at 37° C. with 5% CO2.
Following the incubation, the plate was equilibrated at room temperature for thirty minutes. CellTiter-Glo® (50 μL) was added to each well of the plate and contents mixed for five minutes on an orbital shaker to induce cell lysis. The luminescent signal was allowed to stabilize at room temperature for 20 minutes and the luminescence recorded.
IC50 (EC50) was calculated using a dose-response curve, fitted using a nonlinear regression model with a sigmoidal dose response. Survival rate was calculated using the formula:
The Surviving rate (%)=(LumTest article−LumMedium control)/(LumNon-treated−LumMedium control)×100%.
Absolute IC50 (EC50) was calculated according to the dose-response curve generated by the statistical software (GraphPad Prism 5.0).

`Cc1nn(-c2nc(-c3ccc(C(F)(F)F)cc3)c(SC(C)C)s2)c(C(=O)O)c1-c1cccc(F)c1` [Compound A197, 4-(3-fluorophenyl)-1-(5-(isopropylthio)-4-(4-(trifluoromethyl)phenyl)thiazol-2-yl)-3-methyl-1H-pyrazole-5-carboxylic acid] was tested, and the “% inhibition at top conc.” value (22Rv1 cells, 96 h) was 68.15%, the “% inhibition at top conc.” value (5637 cells, 96 h) was 68.06% and the IC50 (96 h, 5637 cells, 96 h) was 490 nM. For the same compound, the IC50 (96 h, A3/KAW cells, 96 h) was 290 nM, the IC50 (96 h, ASH-3 cells, 96 h) was > 30000 nM and the IC50 (96 h, C4-2, 96 h) was > 30000 nM. For the same compound, the IC50 (96 h, CCK-81 cells, 96 h) was 320 nM, the IC50 (96 h, COV644 cells, 96 h) was > 30000 nM and the IC50 (96 h, H4 cells, 96 h) was 730 nM. The IC50 (96 h, HCC 94 cells, 96 h) was 820 nM, the IC50 (96 h, HM-7, 96 h) was > 30000 nM and the IC50 (96 h, IHH-4 cells, 96 h) was 900 nM. For the same compound, the IC50 (96 h, IM95m cells, 96 h) was 780 nM, the IC50 (96 h, JHH-5 cells, 96 h) was > 30000 nM and the IC50 (96 h, M059K cells, 96 h) was 1660 nM. It also gave an IC50 (96 h, MC/CAR cells, 96 h) of 3280 nM, an IC50 (96 h, NAMALWA cells, 96 h) of 510 nM and an IC50 (96 h, OCUM-2D cells, 96 h) of 1150 nM. For the same compound, the IC50 (96 h, OCUM-2M cells, 96 h) was 830 nM, the IC50 (96 h, RBE cells, 96 h) was 840 nM and the IC50 (96 h, SCH cells, 96 h) was > 30000 nM. The IC50 (96 h, SNU-719 cells, 96 h) was > 30000 nM, the IC50 (96 h, SNU-761 cells, 96 h) was 1110 nM and the IC50 (96 h, SNU-2535 cells, 96 h) was 750 nM. The IC50 (96 h, SNU-C5 cells, 96 h) was > 30000 nM, the IC50 (96 h, SW 156 cells, 96 h) was 2390 nM and the IC50 (96 h, T.Tn cells, 96 h) was 840 nM. The IC50 (96 h, TJ905 cells, 96 h) was > 30000 nM, the IC50 (96 h, YCC-1 cells, 96 h) was > 30000 nM and the IC50 (96 h, YCC-2 cells, 96 h) was > 30000 nM. For the same compound, the IC50 (96 h, YCC-6 cells, 96 h) was 540 nM, the IC50 (96 h, YCC-10, 96 h) was > 30000 nM and the IC50 (A875, 96 h, A875 cells, 96 h) was > 30000 nM. The “% inhibition at top conc.” value (A875 cells, 96 h) was 10.68%, the “% inhibition at top conc.” value (A2058, 96 h) was 29.09% and the “% inhibition at top conc.” value (A2780 cells, 96 h) was 69.48%. The IC50 (A2780cis, 96 h, A2780cis cells, 96 h) was 540 nM, the “% inhibition at top conc.” value (A-204 cells, 96 h) was 37.77% and the “% inhibition at top conc.” value (A-375, 96 h) was 52.11%. For the same compound, the “% inhibition at top conc.” value (A-431, 96 h) was 66.83%, the “% inhibition at top conc.” value (AGS cells, 96 h) was 28.18% and the “% inhibition at top conc.” value (AN3 CA, 96 h) was 35.67%. For the same compound, the “% inhibition at top conc.” value (AsPC-1 cells, 96 h) was 34.71%, the “% inhibition at top conc.” value (C4-2, 96 h) was 45.07% and the “% inhibition at top conc.” value (C666-1 cells, 96 h) was 36.20%. For the same compound, the IC50 (CADO-ES1, CADO-ES1) was 210 nM, the “% inhibition at top conc.” value (CAMA-1, 96 h) was 54.72% and the “% inhibition at top conc.” value (COLO 205, 96 h) was 60.57%. The “% inhibition at top conc.” value (COLO 320DM, 96 h) was 72.92%, the “% inhibition at top conc.” value (COV644 cells, 96 h) was 31.57% and the “% inhibition at top conc.” value (Calu-3, 96 h) was 65.15%. For the same compound, the IC50 (CoC1, 96 h, CoC1/DDP cells, 96 h) was > 30000 nM, the IC50 (CoC1, 96 h, CoC1 cells, 96 h) was 1320 nM and the “% inhibition at top conc.” value (DMS 53 cells, 96 h) was 85.18%. The “% inhibition at top conc.” value (DOHH-2 cells, 96 h) was 99.99%, the “% inhibition at top conc.” value (DU 145, 96 h) was 66.37% and the “% inhibition at top conc.” value (EBC-1, 96 h) was 42.21%. The “% inhibition at top conc.” value (EFM-192A, 96 h) was 49.39%, the IC50 (EFM-192A, 96 h, EFM-192A, 96 h) was 520 nM and the “% inhibition at top conc.” value (ES-2 cells, 96 h) was 44.22%. The “% inhibition at top conc.” value (FaDu, 96 h) was 62.82%, the “% inhibition at top conc.” value (GTL-16 cells, 96 h) was 54.64% and the IC50 (HBL1, HBL-1) was 710 nM. For the same compound, the “% inhibition at top conc.” value (HCC827 cells, 96 h) was 63.74%, the IC50 (HCC1500, HCC1500) was > 30000 nM and the “% inhibition at top conc.” value (HCC2218, 96 h) was 33.43%. For the same compound, the “% inhibition at top conc.” value (HCC4006, 96 h) was 60.70%, the IC50 (HCCC9810, HCCC-9810) was > 30000 nM and the “% inhibition at top conc.” value (HCCLM3 cells, 96 h) was 29.79%. For the same compound, the “% inhibition at top conc.” value (HGC-27 cells, 96 h) was 90.57%, the IC50 (HLF, 96 h, HLF cells, 96 h) was > 30000 nM and the “% inhibition at top conc.” value (HM-7, 96 h) was 43.55%. The “% inhibition at top conc.” value (HT-1080, 96 h) was 68.42%, the “% inhibition at top conc.” value (Hep G2/C3A, 96 h) was 23.83% and the IC50 (HepG2/C3A, 96 h, Hep G2/C3A, 96 h) was > 30000 nM. The IC50 (Homo sapiens, 22Rv1, 96 h, 22Rv1 cells, 96 h) was 430 nM, the IC50 (Homo sapiens, 769-P, 96 h, 769-P cells, 96 h) was 1040 nM and the IC50 (Homo sapiens, 786-0, 96 h, 786-O cells, 96 h) was 1150 nM. For the same compound, the IC50 (Homo sapiens, 8505C) was > 30000 nM, the IC50 (Homo sapiens, A 172, 96 h, A-172 cells, 96 h) was > 30000 nM and the IC50 (Homo sapiens, A204, 96 h, A-204 cells, 96 h) was > 30000 nM. The IC50 (Homo sapiens, A253, 96 h, A253 cells, 96 h) was > 30000 nM, the IC50 (Homo sapiens, A498, 96 h, A498 cells, 96 h) was 860 nM and the IC50 (Homo sapiens, A549, 96 h, A549 cells, 96 h) was 1040 nM. The IC50 (Homo sapiens, A673, 96 h, A-673 cells, 96 h) was 680 nM, the IC50 (Homo sapiens, A2058, 96 h) was > 30000 nM and the IC50 (Homo sapiens, A2780, 96 h, A2780 cells, 96 h) was 400 nM. The IC50 (Homo sapiens, A-375, 96 h) was > 30000 nM, the IC50 (Homo sapiens, A-427, 96 h, A-427 cells, 96 h) was > 30000 nM and the IC50 (Homo sapiens, A-431, 96 h) was 1150 nM. For the same compound, the IC50 (Homo sapiens, ACHN, 96 h, ACHN cells, 96 h) was 790 nM, the IC50 (Homo sapiens, AGS, 96 h, AGS cells, 96 h) was > 30000 nM and the IC50 (Homo sapiens, AMO1, 96 h, AMO-1 cells, 96 h) was 1480 nM. The IC50 (Homo sapiens, AN3-CA, 96 h, AN3 CA, 96 h) was > 30000 nM, the IC50 (Homo sapiens, ARH-77, ARH-77) was > 30000 nM and the IC50 (Homo sapiens, ASPC1, 96 h, AsPC-1 cells, 96 h) was > 30000 nM. For the same compound, the IC50 (Homo sapiens, AU565, AU565) was 10100 nM, the IC50 (Homo sapiens, BT-20, 96 h, BT-20 cells, 96 h) was > 30000 nM and the IC50 (Homo sapiens, BT-474, 96 h, BT474 cells, 96 h) was > 30000 nM. The IC50 (Homo sapiens, BT-483, BT-483) was > 30000 nM, the IC50 (Homo sapiens, BT-549, 96 h, BT-549 cells, 96 h) was 450 nM and the IC50 (Homo sapiens, BXPC-3, BxPC-3) was 540 nM. For the same compound, the IC50 (Homo sapiens, C6661, 96 h, C666-1 cells, 96 h) was > 30000 nM, the IC50 (Homo sapiens, C-33-A, 96 h, C-33 A cells, 96 h) was > 30000 nM and the IC50 (Homo sapiens, CA46, 96 h, CA46 cells, 96 h) was 600 nM. The IC50 (Homo sapiens, CAKI-2, Caki-2) was > 30000 nM, the IC50 (Homo sapiens, CAL-27, 96 h, CAL-27 cells, 96 h) was 3950 nM and the IC50 (Homo sapiens, CAL-51, CAL-51) was 1680 nM. The IC50 (Homo sapiens, CAL-120, CAL-120) was > 30000 nM, the IC50 (Homo sapiens, CAMA-1, 96 h) was 690 nM and the IC50 (Homo sapiens, CAPAN-1, Capan-1) was > 30000 nM. The IC50 (Homo sapiens, CCRF-CEM) was 580 nM, the IC50 (Homo sapiens, CFPAC-1, CFPAC-1) was > 30000 nM and the IC50 (Homo sapiens, COLO 205, 96 h) was 1140 nM. For the same compound, the IC50 (Homo sapiens, COLO 320DM, 96 h, COLO 320DM, 96 h) was 490 nM, the IC50 (Homo sapiens, Ca-Ski, 96 h, Ca Ski cells, 96 h) was > 30000 nM and the IC50 (Homo sapiens, Caco-2, 96 h, Caco-2 cells, 96 h) was > 30000 nM. For the same compound, the IC50 (Homo sapiens, Calu-1, Calu-1) was 1040 nM, the IC50 (Homo sapiens, Calu-3, 96 h) was 1750 nM and the IC50 (Homo sapiens, Calu-6, Calu-6) was > 30000 nM. The IC50 (Homo sapiens, Caov-3, 96 h, Caov-3 cells, 96 h) was > 30000 nM, the IC50 (Homo sapiens, Capan-2, Capan-2) was > 30000 nM and the IC50 (Homo sapiens, DLD-1, DLD-1) was 420 nM. For the same compound, the IC50 (Homo sapiens, DMS-53, 96 h, DMS 53 cells, 96 h) was 1070 nM.
